Laboratory results from patent US10028961B2, “Therapeutically active compounds and their methods of use” (AGIOS PHARMACEUTICALS, INC., priority 2013, dated 2018).
Like-named read-outs stand apart in the source and are kept apart here.

Key:
[1] = system: Neurosphere cells (TS603); assay: Cellular assay for IDH1m R132H inhibitors, 2-HG by LC-MS in neurosphere cells (TS603); format: cell-based; settings: 2-HG in media at 48 hours
Procedure, shortened: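 TS603 neurosphere cells in NeuroCult medium were dosed with compound (0.25% DMSO final) at 37 C, 5% CO2. After 48 hours, medium 2-HG was measured by LC-MS. At 72 hours, viability was read by CellTiter-Glo luminescence.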

[2] = system: HT1080 cells; assay: Cellular assay for IDH1m R132C inhibitors, 2-HG by LC-MS in HT1080 cells; format: cell-based; settings: Homo sapiens, HT-1080
Method: The following describes the experimental procedures that can be used to obtain data on column 5 of Table 4.
Cells (HT1080 or U87MG) are grown in T125 flasks in DMEM containing 10% FBS, 1× penicillin/streptomycin and 500 ug/mL G418 (present in U87MG cells only). They are harvested by trypsin and seeded into 96 well white bottom plates at a density of 5000 cell/well in 100 ul/well in DMEM with 10% FBS. No cells are placed in columns 1 and 12. Cells are incubated overnight at 37° C. in 5% CO2. The next day test compounds are made up at 2× the final concentration and 100 ul are added to each cell well. The final concentration of DMSO is 0.2% and the DMSO control wells are plated in row G. The plates are then placed in the incubator for 48 hours. At 48 hours, 100 ul of media is removed from each well and analyzed by LC-MS for 2-HG concentrations. The cell plate is placed back in the incubator for another 24 hours. At 72 hours post compound addition, 10 mL/plate of Promega Cell Titer Glo reagent is thawed and mixed. The cell plate is removed from the incubator and allowed to equilibrate to room temperature. Then 100 ul of Promega Cell Titer Glo reagent is added to each well of media. The cell plate is then placed on an orbital shaker for 10 minutes and then allowed to sit at room temperature for 20 minutes. The plate is then read for luminescence with an integration time of 500 ms.
HT1080 cells are maintained in RPMI containing 10% FBS, 1× penicillin/streptomycin. […] The next day compounds are prepared in 100% DMSO and then diluted in media for a final concentration of 0.2% DMSO. Media is removed from the cell plates and 200 μL of the compound dilutions are added to each well. […] The cell plates are then allowed to incubate another 24 hours.

[3] = system: U87MG pLVX-IDH2 R140Q-neo cells; assay: U87MG pLVX-IDH2 R140Q-neo cell based assay, 2-HG by LC-MS; settings: Homo sapiens, U-87 MG
[4] = target: IDH2 R140Q (Homo sapiens (Human), UniProt P48735, R140Q); assay: In vitro assay for IDH2m R140Q inhibitors, cofactor depletion assay; format: biochemical; settings: IDH2 R140Q enzyme
Procedure, shortened: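 Remaining cofactor measured fluorimetrically: diaphorase/resazurin Stop Mix […], halting the reaction. Before that, mutant enzyme and compound sat 1 h at RT, then substrate mix (4 μM NADPH, 1.6 mM α-KG) was added for 16 h at RT.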

[5] = target: IDH1 wt/IDH1 R132H heterodimer (Homo sapiens (Human), UniProt O75874, R132H); assay: In vitro assay for IDH1m R132H inhibitors, IDH1 wt/IDH1 R132H heterodimer, NADPH depletion (diaphorase/resazurin); format: biochemical
Procedure, shortened: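 Purified IDH1wt-his/IDH1R132H-flag heterodimer (sf9 co-expression) pre-incubated 1 hr at room temperature with compound and NADPH before α-KG addition. Remaining NADPH read by diaphorase/resazurin conversion to fluorescent resorufin, 5 min at 25° C. Compounds diluted 1:50 from DMSO; IC50 determined.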

[6] = target: IDH1-R132H homodimer enzyme (Homo sapiens (Human), UniProt O75874, R132H); assay: In vitro assay IDH1-R132H homodimer, NADPH depletion assay with NADPH/NADP preincubation; format: biochemical; settings: 5 μM NADPH and 37.5 μM NADP
Method: The following describes the experimental procedures that can be used to obtain data on columns 3 and 5 of Table 5.
A test compound is prepared as 10 mM stock in DMSO and diluted to 50× final concentration in DMSO, for a 50 μl reaction mixture. IDH enzyme activity converting alpha-ketoglutarate to 2-hydroxyglutaric acid is measured using a NADPH depletion assay. In the assay the remaining cofactor is measured at the end of the reaction with the addition of a catalytic excess of diaphorase and resazurin, to generate a fluorescent signal in proportion to the amount of NADPH remaining. […] The reaction is started with the addition of 10 μl of Substrate Mix ([…], 5 mM alpha-ketoglutarate, in Assay Buffer) and the mixture is incubated for 60 minutes at room temperature.

[7] = IDH1 wt/R132H heterodimer, NADPH/NADP, not saturated, read-out: IDH1 wt/R132H NADPH/NADP IC50 not saturated
[8] = IDH1 wt/IDH1 R132H heterodimer, 300 μM NADP (saturated), read-out: IDH1 wt/R132H NADPH/NADP IC50 saturated

Chain of IDH2 R140Q (P48735 40-452 R140Q): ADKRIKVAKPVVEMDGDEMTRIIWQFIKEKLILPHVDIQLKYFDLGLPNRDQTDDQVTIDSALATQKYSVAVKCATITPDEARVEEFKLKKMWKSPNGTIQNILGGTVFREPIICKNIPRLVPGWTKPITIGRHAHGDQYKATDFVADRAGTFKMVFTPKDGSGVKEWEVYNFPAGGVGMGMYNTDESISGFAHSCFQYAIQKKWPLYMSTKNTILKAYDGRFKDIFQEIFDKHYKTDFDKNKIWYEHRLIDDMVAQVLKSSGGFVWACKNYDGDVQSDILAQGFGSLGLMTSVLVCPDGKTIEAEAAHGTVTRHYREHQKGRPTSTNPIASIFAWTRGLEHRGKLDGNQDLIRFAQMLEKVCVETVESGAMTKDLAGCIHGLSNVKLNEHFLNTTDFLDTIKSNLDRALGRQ
Chain of IDH1 wt/IDH1 R132H heterodimer (O75874 whole entry R132H): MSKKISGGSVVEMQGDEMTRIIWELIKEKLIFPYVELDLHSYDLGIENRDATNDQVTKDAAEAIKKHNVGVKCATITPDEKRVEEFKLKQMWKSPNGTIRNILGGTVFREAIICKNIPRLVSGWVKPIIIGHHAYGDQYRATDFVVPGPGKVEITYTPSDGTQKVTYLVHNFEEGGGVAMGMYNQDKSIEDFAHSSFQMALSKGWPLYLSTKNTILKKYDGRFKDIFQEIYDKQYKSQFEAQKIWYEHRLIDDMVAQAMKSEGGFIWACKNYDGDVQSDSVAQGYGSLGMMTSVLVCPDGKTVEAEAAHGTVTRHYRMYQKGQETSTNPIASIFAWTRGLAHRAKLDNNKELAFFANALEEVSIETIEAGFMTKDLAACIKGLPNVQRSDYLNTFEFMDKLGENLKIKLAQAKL
Chain of IDH1 wt/IDH1 R132H heterodimer (O75874 whole entry, stated change not applied): as the sequence (O75874 whole entry R132H) above, with H132R counted along it
Chain of IDH1-R132H homodimer enzyme (O75874 whole entry R132H): as the sequence (O75874 whole entry R132H) above

Row | IC50 [1] | IC50 [2] | IC50 [3] | IC50 [4] | IC50 [5, 7] | IC50 [6] | IC50 [5, 8] | SMILES
1 | < 0.05 µM | < 0.05 µM | < 0.05 µM |  |  |  |  | C[C@@H](Nc1nc(N[C@H](C)C(F)(F)F)nc(-c2cccc(Cl)n2)n1)C(F)(F)F [Compound 101]
2 | < 0.05 µM | < 0.05 µM | < 0.05 µM | < 0.05 µM | < 0.05 µM |  |  | C[C@@H](Nc1nc(N[C@H](C)C(F)(F)F)nc(-c2csc(C(F)(F)F)n2)n1)C(F)(F)F [Compound 114]
3 |  | < 0.05 µM | < 0.05 µM |  |  |  |  | CC(Nc1nc(NC(C)C(F)(F)F)nc(-c2cccc(Cl)n2)n1)C(F)(F)F (centres unmarked) [Compound 130]
4 | < 0.05 µM | < 0.05 µM | < 0.05 µM |  |  |  |  | C[C@H](Nc1nc(N[C@H](C)C(F)(F)F)nc(-c2cccc(Cl)n2)n1)C(F)(F)F [Compound 136]
5 | < 0.05 µM | < 0.05 µM | < 0.05 µM |  |  |  |  | C[C@H](Nc1nc(N[C@@H](C)C(F)(F)F)nc(-c2cccc(Cl)n2)n1)C(F)(F)F [Compound 142]
6 | < 0.05 µM | 0.1 to 1 µM |  |  | < 0.05 µM |  |  | COc1ccc2c(c1)CC(Nc1nc(NC3CCC(F)(F)C3)nc(-c3cccc(C(F)(F)F)n3)n1)C2 (centres unmarked) [Compound 166]
7 | < 0.05 µM | < 0.05 µM |  |  | < 0.05 µM |  |  | FC1(F)CCC(Nc2nc(NC3Cc4cccnc4C3)nc(-c3cccc(C(F)(F)F)n3)n2)C1 (centres unmarked) [Compound 188]
8 | < 0.05 µM | 0.1 to 1 µM | < 0.05 µM | < 0.05 µM | < 0.05 µM |  |  | CC(F)(F)c1cccc(-c2nc(NC3CCC(F)(F)CC3)nc(NC3CCC(F)(F)CC3)n2)n1 [Compound 218]
9 | < 0.05 µM | 0.1 to 1 µM | < 0.05 µM | < 0.05 µM | < 0.05 µM |  |  | CC(C)(O)CNc1nc(Nc2cc(F)cc(F)c2)nc(-n2ccc(C(F)(F)F)n2)n1 [Compound 235]
10 |  | > 1 µM | < 0.05 µM |  | 0.1 to 1 µM |  |  | FC1(F)CCC(Nc2nc(NC3CCC(F)(F)C3)nc(-c3cccc(C4CC4)n3)n2)C1 (centres unmarked) [Compound 258]
11 |  | > 1 µM |  |  | 0.1 to 1 µM |  |  | C[C@@H](Nc1nc(N[C@H](C)C2CC2)nc(-c2cc(F)ccc2F)n1)C1CC1 [Compound 292]
12 | 0.1 to 1 µM |  | 0.1 to 1 µM | 0.1 to 1 µM | > 1 µM | > 1 µM |  | FC(F)c1ccnc(-c2nc(NC3CCC(F)(F)CC3)nc(NC3CCC(F)(F)CC3)n2)n1 [Compound 308]
13 | < 0.05 µM |  | < 0.05 µM | < 0.05 µM |  | < 0.05 µM | < 0.05 µM | Fc1cc(F)cc(Nc2nc(N[C@H]3CCC(F)(F)C3)nc(-c3cncc(C(F)(F)F)n3)n2)c1 [Compound 368]
14 | < 0.05 µM | 0.1 to 1 µM | < 0.05 µM | < 0.05 µM |  |  | < 0.05 µM | C[C@@H](Nc1nc(Nc2ccnc(C3(C#N)CC3)c2)nc(-c2cncc(C(F)(F)F)n2)n1)C(F)(F)F [Compound 377]
15 | < 0.05 µM | 0.05 to 0.1 µM | < 0.05 µM | < 0.05 µM |  |  | < 0.05 µM | N#CC1(c2cc(Nc3nc(N[C@@H]4CCC(F)(F)C4)nc(-c4cncc(C(F)(F)F)n4)n3)ccn2)CC1 [Compound 378]
16 | < 0.05 µM | 0.1 to 1 µM | < 0.05 µM | < 0.05 µM |  |  | < 0.05 µM | N#Cc1cc(Nc2nc(N[C@H]3CCC(F)(F)C3)nc(-n3ccc(C(F)(F)F)n3)n2)ccn1 [Compound 381]

Row | IC50 [1] | IC50 [2] | IC50 [3] | IC50 [4] | IC50 [5, 7] | IC50 [6] | IC50 [5, 8] | SMILES
17 | < 0.05 µM | 0.1 to 1 µM | < 0.05 µM | < 0.05 µM |  |  | < 0.05 µM | CC(F)(F)c1cccc(-c2nc(Nc3ccnc(C4(C#N)CC4)c3)nc(NC3CCC(F)(F)C3)n2)n1 (centres unmarked) [Compound 384]
18 | < 0.05 µM | 0.1 to 1 µM | < 0.05 µM | < 0.05 µM |  |  | 0.05 to 0.1 µM | N#CC1(c2cc(Nc3nc(NC4CC5(C4)CC(F)(F)C5)nc(-c4cncc(C(F)(F)F)n4)n3)ccn2)CC1 [Compound 385]
19 | < 0.05 µM | < 0.05 µM | < 0.05 µM | < 0.05 µM |  |  | < 0.05 µM | C[C@@H](Nc1nc(N[C@H](C)C(F)(F)F)nc(-c2cncc(C(F)(F)F)n2)n1)C(F)(F)F [Compound 386]
20 | < 0.05 µM | 0.05 to 0.1 µM | < 0.05 µM | < 0.05 µM |  |  | < 0.05 µM | FC1(F)CC(Nc2nc(Nc3ccnc(C(F)(F)F)c3)nc(-c3nc(C(F)(F)F)cs3)n2)C1 [Compound 388]
21 | < 0.05 µM | 0.1 to 1 µM | < 0.05 µM | < 0.05 µM |  |  | 0.05 to 0.1 µM | FC1(F)CC(Nc2nc(Nc3ccnc(C(F)(F)F)c3)nc(-c3cncc(C(F)(F)F)n3)n2)C1 [Compound 390]
22 | < 0.05 µM | 0.1 to 1 µM | < 0.05 µM | < 0.05 µM |  |  | < 0.05 µM | N#CC1(c2cc(Nc3nc(NC4CCC(F)(F)CC4)nc(-c4cncc(C(F)(F)F)n4)n3)ccn2)CC1 [Compound 394]
23 | < 0.05 µM | < 0.05 µM | < 0.05 µM | < 0.05 µM |  |  | 0.05 to 0.1 µM | FC(F)c1csc(-c2nc(NC3CCC(F)(F)C3)nc(NC3CCC(F)(F)C3)n2)n1 (centres unmarked) [Compound 402]
24 | < 0.05 µM | < 0.05 µM | < 0.05 µM | < 0.05 µM |  |  | < 0.05 µM | FC(F)c1csc(-c2nc(NC3CC(F)(F)C3)nc(NC3CC(F)(F)C3)n2)n1 [Compound 403]
25 | < 0.05 µM | < 0.05 µM | < 0.05 µM | < 0.05 µM |  |  | < 0.05 µM | CC(Nc1nc(NC(C)C(F)(F)F)nc(-c2nc(C(F)(F)F)cs2)n1)C(F)(F)F (centres unmarked) [Compound 404]
26 | < 0.05 µM | 0.05 to 0.1 µM | < 0.05 µM | < 0.05 µM |  |  | 0.05 to 0.1 µM | FC1(F)CCC(Nc2nc(Nc3cncc(C(F)(F)F)c3)nc(-c3cccc(C(F)(F)F)n3)n2)C1 (centres unmarked) [Compound 405]
27 | < 0.05 µM | 0.1 to 1 µM | < 0.05 µM | < 0.05 µM |  |  | 0.1 to 1 µM | FC(F)(F)c1cc(Nc2nc(NCC3CC3)nc(-n3ccc(C(F)(F)F)n3)n2)ccn1 [Compound 407]
28 | < 0.05 µM | < 0.05 µM | < 0.05 µM | < 0.05 µM |  |  | < 0.05 µM | FC(F)c1cncc(-c2nc(NC3CCC(F)(F)C3)nc(NC3CCC(F)(F)C3)n2)n1 (centres unmarked) [Compound 408]
29 | < 0.05 µM | < 0.05 µM | < 0.05 µM | < 0.05 µM |  |  | < 0.05 µM | FC(F)c1cncc(-c2nc(NC3CC(F)(F)C3)nc(NC3CC(F)(F)C3)n2)n1 [Compound 409]
30 | < 0.05 µM | 0.1 to 1 µM | 0.05 to 0.1 µM | 0.05 to 0.1 µM |  |  | 0.1 to 1 µM | FC(F)c1ccnc(-c2nc(NC3CC(F)(F)C3)nc(NC3CC(F)(F)C3)n2)n1 [Compound 411]
31 | < 0.05 µM | 0.1 to 1 µM | 0.05 to 0.1 µM |  |  |  | 0.1 to 1 µM | FC(F)c1ccnc(-c2nc(NC3CCC(F)(F)C3)nc(NC3CCC(F)(F)C3)n2)n1 (centres unmarked) [Compound 412]
32 |  | 0.1 to 1 µM | < 0.05 µM |  |  | < 0.05 µM | < 0.05 µM | Fc1cc(F)cc(Nc2nc(NC3CC(F)(F)C3)nc(-c3nc(C(F)(F)F)cs3)n2)c1 [Compound 413]
